# Assay results: a melting point compilation (Tetko et al.; mined from patent text by program, amines drawn as free bases though some values may be those of a salt)
row,SMILES,melting point
1,N#Cc1ccc2c(c1)C(=O)NC(C(Cl)(Cl)Cl)O2 (configuration not stated),212 to 214 °C
2,CC1OC(n2cnc3c(S(N)(=O)=O)nc(N)nc32)C(O)C1O (configuration not stated),> 90 °C
3,C=C(C)c1cnc(C2=NC(C)(C(C)C)C(=O)N2)c(C(=O)OC)c1 (configuration not stated),90.5 to 92.5 °C
4,N#CC1=C(C#N)Sc2nc3cc(Cl)ccc3nc2S1,278 to 280 °C
5,O=C(O)CCCCCCc1ncsc1C(=O)O,151 to 153 °C
6,Cc1cccc(SCCC(=O)O)c1,73 to 75.5 °C
7,Brc1ccc(SCc2ncon2)cc1,56 °C
8,COc1cccc(OC)c1C(N)=O,208 to 209 °C
9,COc1nsnc1S(C)(=O)=O,110 to 112 °C
10,CCC(O)(c1ccccc1)c1cccc(N)c1 (configuration not stated),92 to 93 °C
11,CC(C)c1cc(O)c(O)c(C(=O)O)c1,151 to 152 °C
12,CC(=O)NCCCc1ccc(CCl)cc1,89 to 90 °C
13,CCOc1ccc2nc(Cl)c(C=O)cc2c1,163 to 164 °C
14,N#Cc1ccc(Nn2cnnc2)cc1-c1ccoc1,199 to 200 °C
15,COc1ccc(/C=C/C(=O)N2CC(CCl)c3c2cc([N+](=O)[O-])c2cc(S(=O)(=O)NCCO)ccc32)cc1 (configuration not stated),250 to 251 °C
16,CN(c1nnc(C(F)(F)F)s1)C1CCN(Cc2cccc(F)c2)CC1,80.5 °C
17,CCOC(=O)c1cnn(-c2ccc(OC)cc2)c1N,209 to 211 °C
18,Cc1cc(SCC#Cc2ccc(Cl)cc2)ccc1OCC(=O)O,106 to 108 °C
19,CC(=O)NCC(=O)N1CC(=O)NC1(C)C,214 to 215 °C
20,CCOC(=O)c1cc(-c2csc(C)n2)[nH]n1,141 to 142 °C
21,COc1ccc(C2NC(=O)C(C)S2)cc1OC (configuration not stated),151 to 152 °C
22,Nc1c(Br)cccc1CS(=O)(=O)c1ccccc1,174 to 177 °C
23,Nc1c(Cl)cnc(OCCO)c1Cl,77.5 to 81 °C
24,Cc1nc2n(C)ccn2c(=O)c1CCCl,198 °C

row,SMILES,melting point
1,Cc1ccc2c(c1)C(N(CCCCC(=O)O)S(C)(=O)=O)CC(C)(C)O2 (configuration not stated),190 to 195 °C
2,COC(=O)C(OC)C(=O)Nc1cc(Cl)cc(Cl)c1 (configuration not stated),116 to 118 °C
3,CCCc1c(OCCCCCc2c(Cl)c(Cl)c(Cl)c(OC)c2OC)ccc(C(=O)O)c1O,148 to 150 °C
4,COCc1cc(C(O)CNCCCCCCOCCCc2ccccc2)ccc1O (configuration not stated),68 to 70 °C
5,CCCCCN(CCC12CC3CC(CC(C3)C1)C2)C(=O)NCCc1ccccn1,80 to 100 °C
6,CSc1nc(-c2cc(C(C)(C)C)c(O)c(C(C)(C)C)c2)cs1,92 to 93 °C
7,CC(C)[C@H](NCCC#N)C(=O)O,245 to 250 °C
8,CC1CN2CC(=O)N(C)c3ccc(Cl)cc3C2(c2ccccc2)O1 (configuration not stated),142 to 143 °C
9,"CCCCS(=O)(=O)NC1Cc2ccc(C3=NNC(=O)CC3)cc2C1 (single isomer, unassigned; (+))",173 to 174 °C
10,Cc1cc2c(c3ccc(=O)[nH]c13)OC(CC(=O)[C@@H](C)N)C2 (some centres not stated),222 to 225 °C
11,CC1(C)C(=O)Nc2cc3[nH]c(CCC(=O)O)nc3cc21,130 to 135 °C
12,Cc1c(C=CCN2CC=C(c3ccccc3)CC2)cnn1-c1ncccn1,112 to 114 °C
13,CNC(=N)Nc1nnc(-c2ccccc2C(F)(F)F)s1,160 to 162 °C
14,CSc1sc(C(=O)N(C)C2CCCCC2)c2c1-c1oncc1C(C)(C)C2,150 to 153 °C
15,CC(=O)OC1CCC2(C)C3=CCC4(C)C(C(C)=O)CCC4C3CCC2C1 (configuration not stated),163 to 165 °C
16,CN1C2CCC1CN(c1ccc3cc([N+](=O)[O-])ccc3n1)C2,152 to 154 °C
17,COc1ccc(-c2nc(N(C)C)c3c(C)c(C#N)sc3n2)cc1OC,198 to 200 °C
18,C1=CC2(c3ccccc3CP(Cc3ccccc3)Cc3ccccc3)OC2(CP(Cc2ccccc2)Cc2ccccc2)C2OC12 (configuration not stated),203 to 205 °C
19,CCN(CC)CCNC(=O)C1N=C(c2ccccc2)c2cc(Cl)ccc2NC1=O (configuration not stated),220 °C
20,COc1cc(OC)c2c(c1)N1CCCCC1CC2=O (configuration not stated),91 to 94 °C
21,C=Cc1c(C(=O)OC)nc(-c2ccc(Cl)cc2)c(F)c1N,81 to 83 °C
22,O=C(ON=C(Br)Br)c1ccc(Cl)cc1,93 to 97 °C
23,CCOC(=O)C(C#N)=CNNc1ccc(C(F)(F)F)cc1[N+](=O)[O-],163 to 164 °C
24,CCCCCCCCCCC[C@@H](O)CC(=O)O,70.6 to 71.4 °C

# Results, then the compound that gave them:
row,melting point,SMILES
1,130 to 131 °C,O=[N+]([O-])c1ccc(CN2CCC(C(c3ccccc3)c3ccccc3)CC2)cc1
2,131 to 133 °C,C[C@@H](Oc1c(Br)cc(-c2c3ccccc3c(Br)c3sc4ccccc4c23)cc1Br)C(=O)O
3,58 to 59 °C,Cc1c(O)cccc1OCc1ccccc1
4,106 to 107 °C,COC(=O)c1cc(OCc2ccc3ccccc3n2)n(C(C)C)n1
5,95.8 to 97 °C,O=C(OCc1ccccc1)c1ccc(OCc2cccc(COc3ccc(C(=O)OCc4ccccc4)cc3Cl)c2)c(Cl)c1
6,98 to 100 °C,COc1ccc(NC(=O)CN2CCN(c3cccc(C(F)(F)F)c3)CC2)c([N+](=O)[O-])c1
7,277 to 279 °C,CCCn1ncc2c(=O)[nH]c(-c3cc(C(=O)O)ccc3OCC)nc21
8,193 to 194 °C,CC(C)(Cc1cc2cc(OCc3ccc4ccccc4n3)ccc2n1Cc1ccc(Cl)cc1)C(=O)O
9,130 to 133 °C,COC(=O)CCc1cc2cc(Cl)ccc2n1S(=O)(=O)c1ccc(C(C)(C)C)cc1
10,119 to 127 °C,O=C(NCCO)c1ccc(-c2nn(Cc3ccccc3)c3ccccc23)o1
11,108 to 110 °C,CC(=O)Nc1cc(OCc2ccc3c(c2)OCO3)c(C(=O)CCCCCl)cc1Cl
12,197 to 200 °C,CC(C(=O)O)c1ccc2oc(-c3cccnc3)nc2c1 (configuration not stated)
13,270 to 272 °C,O=C1CCC(N2Cc3c(OCc4ccc5nccn5c4)cccc3C2=O)C(=O)N1 (configuration not stated)
14,178 to 188 °C,O=[N+]([O-])c1ccc(-n2ccnc2)cc1Sc1cccc2cnccc12
15,76 to 77 °C,Clc1ccccc1Cc1cccc2[nH]ccc12
16,124 °C,COC(=O)Oc1ccc(-c2ccc(=O)n(Cc3ccc(Cl)cc3F)c2)cc1
17,91 to 92 °C,O=C(O)CCc1ccc(OCCc2ccccc2)cc1
18,213 to 214 °C,N#CCNC(=O)c1nn(C2CCCCO2)cc1NC(=O)c1ccccn1 (configuration not stated)
19,78 to 80 °C,CCOCc1cc2cc(Br)ccc2oc1=Nc1ccccc1
20,200 to 201 °C,Cc1c(Cc2cccc(C(F)(F)F)c2)oc2c(-c3cc(C(=O)NCCC#N)ccn3)cccc12
21,186 °C,O=C(c1ccc(F)cc1)c1ccc(C(=O)c2ccc(F)cc2)s1
22,51 to 54 °C,COC(=O)CC(=O)NCc1ccccc1
23,276 to 278 °C,O=c1c2c(Cc3cccc(O)c3)n[nH]c2c2cccnc2n1-c1ccccc1
24,144 to 146 °C,COc1cc2ncnc(N3CCN(C(=O)Nc4ccc(C(=O)C(F)(F)F)cc4)CC3)c2cc1OC
25,207 °C,O=C(O)COc1ccc2c(-c3ccc(Cl)cc3)noc2c1
26,135 to 136 °C,O=C(CSc1ccnc2ccccc12)c1ccc(OCc2ccccc2)cc1
27,98 to 100 °C,Cc1oc2c(C)c(C)c(OCc3ccccc3)c(C)c2c1CN1CCC[C@H]1CO

row,melting point,SMILES
1,154 °C,O=C1c2ccc(Nc3ccc(F)cc3F)cc2CCc2cc(OCCCO)ccc21
2,203 to 205 °C,CCN1C(=O)C2=C(c3cccc(Cl)c3)N(CC)C(=O)C2=C1c1cccc(Cl)c1
3,120 °C,NC(=O)COc1ccc(OCc2ccccc2)cc1OCc1ccccc1
4,96 to 99 °C,Cc1cc(F)ccc1-c1nc(OCCN)nc2c1ccc(=O)n2-c1c(F)cccc1F
5,290 to 291 °C,Cc1nn(-c2ccc(NC=C3C(=O)NC(=O)c4ccc(Br)cc43)cc2)c(C)c1Cl
6,248 to 249 °C,Cc1ccccc1-c1cc(C#N)c(SSc2[nH]c(-c3ccccc3C)cc2C#N)[nH]1
7,208 to 210 °C,CCCN1N=C2C(=Cc3ccc(Cl)cc3)CS(=O)(=O)CC2C1c1ccc(Cl)cc1 (configuration not stated)
8,175 °C,CN1C(=O)C(Cc2ccccc2)N(C)C(=O)C1=Cc1c(C#N)ccc(F)c1F (configuration not stated)
9,162 to 164 °C,Cc1cc(C(=S)NCc2ccc(Br)cc2F)c(OCC(=O)O)cc1F
10,166 to 168 °C,COc1ccc(N2CCN(c3c(C)c(C)c4c(c3C)C(N3CCc5ccccc53)C(C)(C)O4)CC2)cc1 (configuration not stated)
11,117 to 118 °C,O=C(Nc1ccccc1)N1CCN2C(=O)OC(c3ccccc3)(c3ccccc3)C2C1 (configuration not stated)
12,107 °C,COc1ccc(Oc2ccc(C(=O)N(C(C)C)C3CCCCC3)cc2)cc1OC
13,119 to 120 °C,CSCC(=O)[C@H](CCc1ccccc1)NC(=O)[C@H](CC(C)C)NC(=O)OCc1ccccc1
14,150 to 151 °C,O=C(Nc1ccc(Oc2ccnc(NC3CCS(=O)(=O)C3)n2)c2ccccc12)c1cc(F)cc(N2CCOCC2)c1 (configuration not stated)
15,185 to 189 °C,COc1cc(Nc2nc3cccc(-c4ccn[nH]4)c3o2)cc(OC)c1OC
16,166 to 181 °C,CCc1nccc2c(CC(=O)O)cccc12
17,245 to 246 °C,Nc1ccc(S(=O)(=O)c2cc(-c3ccc(F)cc3)nc(N3CCCC3)c2)cc1
18,253 to 255 °C,CC(=O)Nc1cc(O)ccc1-c1cc(=O)c2ccccc2o1
19,174 to 175 °C,COc1ccc(C(=O)Nc2ccccc2)cc1NC(=S)Nc1ccc(Cl)c(Cl)c1
20,135 to 136 °C,Cc1ccnc2c(O)cccc12
21,186 to 188 °C,N#Cc1ccc(OCCCCOc2ccc(-c3cc4cc(C#N)ccc4o3)cc2)cc1
22,164 to 165 °C,NC1=NN(c2cccc(Cl)c2)C(c2ccccc2)C1 (configuration not stated)
23,120 to 125 °C,Cc1c(-c2ccc(OC(C)C)cc2)n(Cc2ccc(OCCN3CCCCCC3)cc2)c2ccc(O)cc12
24,> 260 °C,COC(=O)CCc1ccc(N2CCN(c3ccc(C(=N)NC(=O)OC)cc3)C2=O)cc1
25,> 280 °C,O=C(O)c1ccc(-c2cc([N+](=O)[O-])ccc2F)cc1
26,160 to 164 °C,COc1cccc(-n2c(CC(c3ccccc3)c3c[nH]c4ccccc34)nc3ccccc3c2=O)c1 (configuration not stated)
27,103 to 105 °C,CC(C)(C)c1ccc2c(c1)[C@H]1Cc3ccccc3[C@H]1N2 (relative stereo)
